Test system: MV-4-11 cells
Experiment: Gene expression microarray analysis (Affymetrix PrimeView) and GSEA
Format: cell-based, human
Set-up: RFU PODN (11730768_x_at) / Fold change /veh PODN (11730768_x_at) / RFU LINC00158 (11744669_a_at) / Fold change /veh LINC00158 (11744669_a_at) / RFU DUSP10 (11751237_a_at) / Fold change /veh DUSP10 (11751237_a_at) / RFU ID3 (11757404_x_at) / Fold change /veh ID3 (11757404_x_at) / RFU PLEKHG5 (11737974_s_at) / Fold change /veh PLEKHG5 (11737974_s_at) / RFU LRRC4B (11730491_at) / Fold change /veh LRRC4B (11730491_at) / RFU GIMAP4 (11747438_a_at) / Fold change /veh GIMAP4 (11747438_a_at) / RFU KRT8 (11758183_x_at) / Fold change /veh KRT8 (11758183_x_at) / RFU CNN1 (11734310_a_at) / Fold change /veh CNN1 (11734310_a_at) / RFU VPS37D (11726825_at) / Fold change /veh VPS37D (11726825_at) / RFU C10orf10 (11716522_x_at) / Fold change /veh C10orf10 (11716522_x_at) / RFU KIR2DL2 /// KIR2DL4 /// KIR2DL5A /// KIR2DL5B /// KIR2DS1 /// KIR2DS2 /// KIR2DS3 /// KIR2DS4 /// KIR3DL3 /// KIR3DL3 /// KIR3DS1 (11738374_at) / Fold change /veh KIR2DL2 /// KIR2DL4 /// KIR2DL5A /// KIR2DL5B /// KIR2DS1 /// KIR2DS2 /// KIR2DS3 /// KIR2DS4 /// KIR3DL3 /// KIR3DL3 /// KIR3DS1 (11738374_at) / RFU C1QL1 (11718748_at) / Fold change /veh C1QL1 (11718748_at) / RFU TMPRSS4 (11747572_a_at) / Fold change /veh TMPRSS4 (11747572_a_at) / RFU HAMP (11756126_x_at) / Fold change /veh HAMP (11756126_x_at) / RFU RNFT2 (11725882_a_at) / Fold change /veh RNFT2 (11725882_a_at) / RFU NR4A2 (11747474_a_at) / Fold change /veh NR4A2 (11747474_a_at) / RFU ABCC12 (11746883_a_at) / Fold change /veh ABCC12 (11746883_a_at) / RFU TMEM136 (11760407_x_at) / Fold change /veh TMEM136 (11760407_x_at) / RFU CLDN22 /// WWC2 (11732394_at) / Fold change /veh CLDN22 /// WWC2 (11732394_at) / RFU HLA-DPB1 (11760878_x_at) / Fold change /veh HLA-DPB1 (11760878_x_at) / RFU SPINT1 (11716480_a_at) / Fold change /veh SPINT1 (11716480_a_at) / RFU GAP43 (11754022_s_at) / Fold change /veh GAP43 (11754022_s_at) / RFU A4GNT (11735810_at) / Fold change /veh A4GNT (11735810_at) / RFU PRB3 (11715151_x_at) / Fold change /veh PRB3 (11715151_x_at) / RFU TUBB4B (11761932_at) / Fold change /veh TUBB4B (11761932_at) / RFU CAPN14 (11732068_a_at) / Fold change /veh CAPN14 (11732068_a_at) / RFU TMCC2 (11721928_a_at) / Fold change /veh TMCC2 (11721928_a_at) / RFU IRGQ (11745062_a_at) / Fold change /veh IRGQ (11745062_a_at) / RFU FAM174B (11720279_a_at) / Fold change /veh FAM174B (11720279_a_at) / RFU TMPRSS4 (11748680_a_at) / Fold change /veh TMPRSS4 (11748680_a_at) / RFU FAM212B (11763350_a_at) / Fold change /veh FAM212B (11763350_a_at) / RFU PLEKHG5 (11743358_a_at) / Fold change /veh PLEKHG5 (11743358_a_at) / RFU ZSCAN30 (11745921_a_at) / Fold change /veh ZSCAN30 (11745921_a_at) / RFU CMKLR1 (11741424_a_at) / Fold change /veh CMKLR1 (11741424_a_at) / RFU LOC101060620 /// MAPK8IP1 (11723275_at) / Fold change /veh LOC101060620 /// MAPK8IP1 (11723275_at) / RFU SPTSSB (11747773_x_at) / Fold change /veh SPTSSB (11747773_x_at) / RFU PRSS12 (11739890_at) / Fold change /veh PRSS12 (11739890_at) / RFU BIN1 (11741810_x_at) / Fold change /veh BIN1 (11741810_x_at) / RFU WNT11 (11732464_a_at) / Fold change /veh WNT11 (11732464_a_at) / RFU C10orf10 (11716521_a_at) / Fold change /veh C10orf10 (11716521_a_at) / RFU C5orf56 (11738089_at) / Fold change /veh C5orf56 (11738089_at) / RFU CYB561 (11721691_x_at) / Fold change /veh CYB561 (11721691_x_at) / RFU ANKRD19P (11752326_a_at) / Fold change /veh ANKRD19P (11752326_a_at) / RFU OR2T12 /// OR2T33 /// OR2T8 (11738714_s_at) / Fold change /veh OR2T12 /// OR2T33 /// OR2T8 (11738714_s_at) / RFU VCAN (11748164_a_at) / Fold change /veh VCAN (11748164_a_at) / RFU JSRP1 (11732532_at) / Fold change /veh JSRP1 (11732532_at) / RFU KRTAP10-11 (11738290_x_at) / Fold change /veh KRTAP10-11 (11738290_x_at) / RFU MYO3A (11730013_a_at) / Fold change /veh MYO3A (11730013_a_at) / RFU EBF3 (11725865_a_at) / Fold change /veh EBF3 (11725865_a_at) / RFU CAMK2N1 (11719241_x_at) / Fold change /veh CAMK2N1 (11719241_x_at) / RFU C5orf56 (11738088_a_at) / Fold change /veh C5orf56 (11738088_a_at) / RFU OLFML3 (11715873_a_at) / Fold change /veh OLFML3 (11715873_a_at) / RFU LOC100653217 /// NTM (11731650_a_at) / Fold change /veh LOC100653217 /// NTM (11731650_a_at) / RFU MAPK11 (11762145_a_at) / Fold change /veh MAPK11 (11762145_a_at) / RFU FIZ1 (11724087_x_at) / Fold change /veh FIZ1 (11724087_x_at) / RFU OASL (11726364_x_at) / Fold change /veh OASL (11726364_x_at) / RFU SOX15 (11748057_x_at) / Fold change /veh SOX15 (11748057_x_at) / RFU CD79A (11719716_a_at) / Fold change /veh CD79A (11719716_a_at) / RFU HIST1H1D (11736915_at) / Fold change /veh HIST1H1D (11736915_at) / RFU CASKIN2 (11723855_a_at) / Fold change /veh CASKIN2 (11723855_a_at) / RFU LOC730098 (11760151_x_at) / Fold change /veh LOC730098 (11760151_x_at) / RFU OR4N2 (11742367_at) / Fold change /veh OR4N2 (11742367_at) / RFU PRRT2 (11749266_a_at) / Fold change /veh PRRT2 (11749266_a_at) / RFU SNX32 (11753110_a_at) / Fold change /veh SNX32 (11753110_a_at) / RFU CDHR5 (11726645_a_at) / Fold change /veh CDHR5 (11726645_a_at) / RFU RCAN1 (11760418_a_at) / Fold change /veh RCAN1 (11760418_a_at) / RFU FAM167A (11723789_a_at) / Fold change /veh FAM167A (11723789_a_at) / RFU FAM26E (11764081_at) / Fold change /veh FAM26E (11764081_at) / RFU ISYNA1 (11749810_s_at) / Fold change /veh ISYNA1 (11749810_s_at) / RFU ACY1 (11761880_at) / Fold change /veh ACY1 (11761880_at) / RFU 11764098_at / Fold change /veh 11764098_at / RFU SAMD14 (11745864_x_at) / Fold change /veh SAMD14 (11745864_x_at) / RFU NPB (11741838_a_at) / Fold change /veh NPB (11741838_a_at) / RFU TMPRSS6 (11731388_a_at) / Fold change /veh TMPRSS6 (11731388_a_at) / RFU KRTAP10-2 (11738614_at) / Fold change /veh KRTAP10-2 (11738614_at) / RFU ARHGAP8 /// PRR5-ARHGAP8 (11727945_x_at) / Fold change /veh ARHGAP8 /// PRR5-ARHGAP8 (11727945_x_at) / RFU KRTAP5-7 /// NADSYN1 (11734609_at) / Fold change /veh KRTAP5-7 /// NADSYN1 (11734609_at) / RFU RASL12 (11751679_a_at) / Fold change /veh RASL12 (11751679_a_at) / RFU CDKN2B (11736163_a_at) / Fold change /veh CDKN2B (11736163_a_at) / RFU PRF1 (11729649_at) / Fold change /veh PRF1 (11729649_at) / RFU, ZNF638 /// ZNF638-IT1 / Fold change vs veh, ZNF638 /// ZNF638-IT1 / RFU, PANK3 / Fold change vs veh, PANK3 / RFU, SH3YL1 / Fold change vs veh, SH3YL1 / RFU, ZEB2 / Fold change vs veh, ZEB2 / RFU, NRIP1 / Fold change vs veh, NRIP1 / RFU, PTTG1IP / Fold change vs veh, PTTG1IP / RFU, CAPN2 / Fold change vs veh, CAPN2 / RFU, MED14 / Fold change vs veh, MED14 / RFU, SNORA58 / Fold change vs veh, SNORA58 / RFU, C1orf63 / Fold change vs veh, C1orf63 / RFU, LRRFIP1 / Fold change vs veh, LRRFIP1 / RFU, NDUFAF7 / Fold change vs veh, NDUFAF7 / RFU, SLC12A2 / Fold change vs veh, SLC12A2 / RFU, IBTK / Fold change vs veh, IBTK / RFU, ESF1 / Fold change vs veh, ESF1 / Fold change vs veh, TMEM50B / RFU, TAOK1 / Fold change vs veh, TAOK1 / RFU, ACBD3 / Fold change vs veh, ACBD3 / RFU, TMA16 / Fold change vs veh, TMA16 / RFU, RWDD3 / Fold change vs veh, RWDD3 / RFU, BCAT1 / Fold change vs veh, BCAT1 / RFU, EDEM3 / Fold change vs veh, EDEM3 / RFU, TMEM33 / Fold change vs veh, TMEM33 / RFU, WDR75 / Fold change vs veh, WDR75 / RFU, AHCTF1 / Fold change vs veh, AHCTF1 / RFU, TFRC / Fold change vs veh, TFRC / RFU, ZDHHC17 / Fold change vs veh, ZDHHC17 / RFU, NOM1 / Fold change vs veh, NOM1 / RFU, ARL8B / Fold change vs veh, ARL8B / RFU, ZBTB11 / Fold change vs veh, ZBTB11 / RFU, TAMM41 / Fold change vs veh, TAMM41 / RFU, KIAA1704 /// LOC100996395 / Fold change vs veh, KIAA1704 /// LOC100996395 / RFU, ING1 / Fold change vs veh, ING1 / RFU, TRMT61B / Fold change vs veh, TRMT61B / RFU, FUBP3 / Fold change vs veh, FUBP3 / RFU, TP53 / Fold change vs veh, TP53 / RFU, TNKS2 / Fold change vs veh, TNKS2 / RFU, ZFP14 / Fold change vs veh, ZFP14 / RFU, ACTR2 / Fold change vs veh, ACTR2 / RFU, PPP3R1 / Fold change vs veh, PPP3R1 / RFU, PIK3R1 / Fold change vs veh, PIK3R1 / RFU, HNRNPA1 / Fold change vs veh, HNRNPA1 / RFU, RNF170 / Fold change vs veh, RNF170 / RFU, ZNF28 / Fold change vs veh, ZNF28 / RFU, RNGTT / Fold change vs veh, RNGTT / RFU, OGT / Fold change vs veh, OGT / RFU, BRD1 / Fold change vs veh, BRD1 / RFU, MARS / Fold change vs veh, MARS / RFU, ZNF655 / Fold change vs veh, ZNF655 / RFU, FAHD1 / Fold change vs veh, FAHD1 / RFU, BDP1 / Fold change vs veh, BDP1 / RFU, LRRCC1 / Fold change vs veh, LRRCC1 / RFU, ARID1A / Fold change vs veh, ARID1A / RFU, ZNF146 / Fold change vs veh, ZNF146 / RFU, ZNF330 / Fold change vs veh, ZNF330 / RFU, GPN3 / Fold change vs veh, GPN3 / RFU, C9orf123 / Fold change vs veh, C9orf123 / RFU, N4BP2L2 / Fold change vs veh, N4BP2L2 / RFU, ARFIP1 / Fold change vs veh, ARFIP1 / RFU, FAM179B / Fold change vs veh, FAM179B / RFU, BCL10 / Fold change vs veh, BCL10 / RFU, UHRF1BP1L / Fold change vs veh, UHRF1BP1L / RFU, BET1 / Fold change vs veh, BET1 / RFU, CNOT2 / Fold change vs veh, CNOT2 / RFU, ZNF268 / Fold change vs veh, ZNF268 / Fold change vs veh, ZNF507 / RFU, DGCR2 / Fold change vs veh, DGCR2 / RFU, WDSUB1 / Fold change vs veh, WDSUB1 / Fold change vs veh, HSP90B1 /// MIR3652 / RFU, ADSS / Fold change vs veh, ADSS / RFU, GK / Fold change vs veh, GK / RFU, ZNF148 / Fold change vs veh, ZNF148 / RFU, TAF9 / Fold change vs veh, TAF9 / RFU, SLC1A5 / Fold change vs veh, SLC1A5 / RFU, SLMO2 / Fold change vs veh, SLMO2 / RFU, ABCC4 / Fold change vs veh, ABCC4 / RFU, LOC101060439 /// RAP1B / Fold change vs veh, LOC101060439 /// RAP1B / RFU, RFX7 / Fold change vs veh, RFX7 / RFU, GTPBP10 / Fold change vs veh, GTPBP10 / RFU, CNEP1R1 / Fold change vs veh, CNEP1R1 / RFU, BIVM-ERCC5 /// ERCC5 / Fold change vs veh, BIVM-ERCC5 /// ERCC5 / RFU, ILF3 / Fold change vs veh, ILF3 / RFU 11762660_at / Fold change /veh 11762660_at / RFU VCAN (11757783_s_at) / Fold change /veh VCAN (11757783_s_at) / RFU DDX43 (11728927_at) / Fold change /veh DDX43 (11728927_at) / RFU KRT8 (11758188_x_at) / Fold change /veh KRT8 (11758188_x_at) / RFU NKD1 (11759106_at) / Fold change /veh NKD1 (11759106_at) / RFU SRD5A1 (11742802_a_at) / Fold change /veh SRD5A1 (11742802_a_at) / RFU TPSAB1 /// TPSB2 (11721975_s_at) / Fold change /veh TPSAB1 /// TPSB2 (11721975_s_at) / RFU GSTM3 (11746129_a_at) / Fold change /veh GSTM3 (11746129_a_at) / RFU IL23R (11737362_x_at) / Fold change /veh IL23R (11737362_x_at) / RFU TMEM51 (11727254_a_at) / Fold change /veh TMEM51 (11727254_a_at) / RFU PIWIL2 (11732686_x_at) / Fold change /veh PIWIL2 (11732686_x_at) / RFU ORM1 (11744905_x_at) / Fold change /veh ORM1 (11744905_x_at) / RFU CCDC152 (11743942_at) / Fold change /veh CCDC152 (11743942_at) / RFU ECM1 (11717891_a_at) / Fold change /veh ECM1 (11717891_a_at) / RFU IL23R (11748794_a_at) / Fold change /veh IL23R (11748794_a_at) / RFU TNFAIP8L3 (11732012_x_at) / Fold change /veh TNFAIP8L3 (11732012_x_at) / RFU MBOAT4 (11741988_at) / Fold change /veh MBOAT4 (11741988_at) / RFU 11764193_at / Fold change /veh 11764193_at / RFU TMEM53 (11763286_at) / Fold change /veh TMEM53 (11763286_at) / RFU MAGEB2 (11727129_at) / Fold change /veh MAGEB2 (11727129_at) / RFU TMEM200A (11744735_a_at) / Fold change /veh TMEM200A (11744735_a_at) / RFU CCDC152 (11751479_a_at) / Fold change /veh CCDC152 (11751479_a_at) / RFU FAM211A (11726209_a_at) / Fold change /veh FAM211A (11726209_a_at) / RFU RGS16 (11746705_a_at) / Fold change /veh RGS16 (11746705_a_at) / RFU VCAN (11755009_s_at) / Fold change /veh VCAN (11755009_s_at) / RFU RHOB (11743442_s_at) / Fold change /veh RHOB (11743442_s_at) / RFU RGS16 (11720943_a_at) / Fold change /veh RGS16 (11720943_a_at) / RFU RGS16 (11720944_at) / Fold change /veh RGS16 (11720944_at) / RFU, VPS4B / Fold change vs veh, VPS4B / RFU, CREB1 / Fold change vs veh, CREB1 / RFU, DNAJC13 / Fold change vs veh, DNAJC13 / RFU, GNAQ / Fold change vs veh, GNAQ / RFU, CDK5R1 / Fold change vs veh, CDK5R1 / RFU, ZRANB3 / Fold change vs veh, ZRANB3 / RFU, CUL4A / Fold change vs veh, CUL4A / RFU, CCNY / Fold change vs veh, CCNY / RFU, UFL1 / Fold change vs veh, UFL1 / RFU, COG3 / Fold change vs veh, COG3 / RFU, DIAPH2 / Fold change vs veh, DIAPH2 / RFU, SKA2 / Fold change vs veh, SKA2 / RFU, AFF3 / Fold change vs veh, AFF3 / RFU, LMF1 / Fold change vs veh, LMF1 / RFU, IPO11 / Fold change vs veh, IPO11 / RFU, DFFB / Fold change vs veh, DFFB / RFU, FOXP1 / Fold change vs veh, FOXP1 / RFU, CARD8 / Fold change vs veh, CARD8 / RFU, STRN3 / Fold change vs veh, STRN3 / RFU, ADK / Fold change vs veh, ADK / RFU, RASSF2 / Fold change vs veh, RASSF2 / RFU, WIPF1 / Fold change vs veh, WIPF1 / RFU, LARP1B / Fold change vs veh, LARP1B / RFU, RASA1 / Fold change vs veh, RASA1 / RFU, RB1 / Fold change vs veh, RB1 / RFU, PPFIA1 / Fold change vs veh, PPFIA1 / RFU, MAT2A / Fold change vs veh, MAT2A / RFU, CCT5 / Fold change vs veh, CCT5 / RFU, WDR92 / Fold change vs veh, WDR92 / RFU, CUX1 / Fold change vs veh, CUX1 / RFU, TTC7A / Fold change vs veh, TTC7A / RFU, TMEM135 / Fold change vs veh, TMEM135 / RFU, DEPTOR / Fold change vs veh, DEPTOR / RFU, CPM / Fold change vs veh, CPM / RFU, DNAJB6 / Fold change vs veh, DNAJB6 / RFU, CACNA2D3 / Fold change vs veh, CACNA2D3 / RFU, DTX4 / Fold change vs veh, DTX4 / RFU, TFCP2 / Fold change vs veh, TFCP2 / RFU, GMCL1 /// GMCL1P1 / Fold change vs veh, GMCL1 /// GMCL1P1 / RFU, AEBP2 / Fold change vs veh, AEBP2 / RFU, SNHG1 /// SNORD22 /// SNORD25 /// SNORD26 /// SNORD27 /// SNORD28 /// SNORD29 /// SNORD31 / Fold change vs veh, SNHG1 /// SNORD22 /// SNORD25 /// SNORD26 /// SNORD27 /// SNORD28 /// SNORD29 /// SNORD31 / Fold change (Aza/veh), C12orf56 (ProbeSet 11735607_a_at) / Fold change (ACY-1035/veh), C12orf56 (ProbeSet 11735607_a_at) / Fold change (Aza/veh), FGFR1OP (ProbeSet 11751329_s_at) / Fold change (ACY-1035/veh), FGFR1OP (ProbeSet 11751329_s_at) / Fold change (Aza/veh), VPS36 (ProbeSet 11739960_a_at) / Fold change (ACY-1035/veh), VPS36 (ProbeSet 11739960_a_at) / RFU SYPL1 (11715823_x_at) / Fold change /veh SYPL1 (11715823_x_at) / RFU IGFBP7 (11715501_s_at) / Fold change /veh IGFBP7 (11715501_s_at) / RFU REEP3 (11722064_at) / Fold change /veh REEP3 (11722064_at) / RFU IGLL1 (11728026_x_at) / Fold change /veh IGLL1 (11728026_x_at): dose or concentration left out as unconfirmed
Settings: ProbeSet 11719185_x_at; LIST B

With Nc1ncn([C@@H]2O[C@H](CO)[C@@H](O)[C@H]2O)c(=O)n1 [azacitidine] the “RFU, N4BP2L2” value was 91.08 RFU.
